The source of these data is patent US20080279961A1, “TELOMERE TARGETING AGENTS AS STEM CELLS DIRECTED TREATMENTS” (priority 2007, published 2008).

Entries after “also recorded” stand apart in the source; their conditions may differ.

The test system of series [1] is R1 prostate cancer cells. The experiment in a line: side population analysis. The class given is cell-based. The source says:
In one embodiment of the invention, cancer stem cells have shorter telomeres than other cancer cells (FIG. 7). Side population analysis was done to distinguish between cancer stem cells in R1 prostate cancer cells and […]. A primitive CD34^low/neg stem cell population has been defined in normal bone marrow, which has the unique capacity to efflux lipophilic dyes such as Hoechst 33342 as a result of high levels of expression of P-glycoprotein (MDRa/ABCB1) transporter and BCRP (breast cancer resistance protein, ABCG2). […] R1 is the parental prostate cancer cell line with a SP of 0.36% of cells of the total population (100%). […] Subclones of the R1 chemosensitive prostate cancer cell line that are resistant to the clinically used cytotoxic agents mitoxantrone and docetaxel, show a much expanded SP of 45% and 83% of cells respectively. In fact docetaxel resistant R1 cells are almost all stem cell like cells.

Series [2] is described as follows: tolerability in xenograft studies (body weight, deaths, MTD). As to the method:
For the first in vivo experiment, tumor fragments (5×5 mm) from untreated donor animals were implanted subcutaneously into both flanks of recipient mice. Treatment was initiated 6 days after transplantation (=day 0, median tumor volume of ˜70 mm^3). Animals were randomized into groups following Lindner's randomization tables and treated by oral gavage with 5 mg/kg/d RHPS4 or vehicle (phosphate buffered saline) respectively (n=5-8 animals per group). […] Drug administration was repeated twice weekly for 8 times (Q3dx8) after randomization. Tumor growth was followed twice weekly by serial caliper measurement, body weights were recorded, and tumor volumes were calculated using the standard formula (length×width^2)/2, where length is the largest dimension and width the smallest dimension perpendicular to the length (Alley et al., 2004; Geran et al., 1972). The median relative tumor volume was plotted against time. Relative tumor volumes were calculated for each single tumor by dividing the tumor volume on day X by that on day 0 (time of randomization). Growth curves were analyzed in terms of tumor inhibition (treated/control, T/C, calculated as median tumor weight of treated divided by median tumor weight of control animals times 100). Statistical data analysis was done using non-parametrical Wilcoxon Mann-Whitney statistics. Median relative tumor volumes of each treatment group were compared with those of the vehicle control groups. P values less than 0.05 were considered statistically significant. SPSS 2000, SYSTAT version 10 software was used.
To conduct combination treatment with Paclitaxel, after 4 serial propagations of RHPS4 treated tumor tissue in nude mice (FIG. 1), RHPS4 was combined with Paclitaxel. Single agent Paclitaxel was given at 20 mg/kg i.v. on days 1 and 15. In combination with RHPS4 (given at 5 mg/kg p.o. twice weekly), only a single dose of Paclitaxel (20 mg/kg i.v.) was administered on day 1. Tumor growth parameters and body weight were assessed as described above.

Series [3] deals with UXF1138L xenografts. In words: tumor growth inhibition of subcutaneous xenografts. It counts as in vivo, nude mice.
Series [4] deals with UXF1138L xenografts. As to conditions: mouse, in vivo; cited from earlier work.

For `COc1ccc2c3c([nH]c2c1)[C@H](CC(C)C)N1C(=O)[C@H](CCC(=O)OC(C)(C)C)NC(=O)[C@@H]1C3` [Ko143], the “effect on side population (SP)” value in series [1] is given as “abolishes the SP”.

`CC(=O)O[C@H]1C(=O)[C@@]2(C)[C@H]([C@H](OC(=O)c3ccccc3)[C@]3(O)C[C@H](OC(=O)[C@H](O)[C@@H](NC(=O)c4ccccc4)c4ccccc4)C(C)=C1C3(C)C)[C@]1(OC(C)=O)CO[C@@H]1C[C@@H]2O` [Paclitaxel, reference compound]: in series [2] (Passage #4), the “Deaths [n/n], drug related death per mice per group” value is 0/6. Also, the “BWC, maximal median body weight change” value in series [2] (mouse, in vivo) was “+6%”. In addition, the “opt. Test/Control [%]” value in series [3] (Passage #4, RHPS4 5 mg/kg p.o. twice weekly, Paclitaxel 20 mg/kg i.v.) turned out to be 8%. In addition, in series [3] (Passage #4, tumors per group), the “CR, complete remission” value is 2/12; the “P, progression” value was 3/12; the “PR, partial regression” value is given as 7/12. The “antitumor response in words” value in series [3] (Passage #4 UXF1138L xenografts) was “has single agent activity; also recorded: transient remissions; also recorded: Minor remissions”.

Turning to `COc1cccc2c1C(=O)c1c(O)c3c(c(O)c1C2=O)C[C@@](O)(C(=O)CO)C[C@@H]3O[C@H]1C[C@H](N)[C@H](O)[C@H](C)O1` [doxorubicin], the “response of UXF1138L xenograft to standard chemotherapy” value in series [4] is listed as “resistant”.

Turning to `O=C1c2c(O)ccc(O)c2C(=O)c2c(NCCNCCO)ccc(NCCNCCO)c21` [mitoxantrone], the “response of UXF1138L xenograft to standard chemotherapy” value in series [4] is on record as “resistant”.
